{"source": "patent US10184933B2", "about": "“Compositions, systems and methods for gene expression noise drug screening and uses thereof” (priority 2013, dated 2019)", "key": {"[1]": {"test_system": "HIV-1 LTR promoter", "experiment": "Single-cell time-lapse fluorescence microscopy of polyclonal LTR d2GFP cell population", "type": "cell-based", "description": "Lentiviral vectors expressing the LTR-GFP cassette in the absence of Tat were described (Weinberger et al., 2005, Cell, 122(2):169-182) and used to infect 5×10^5 Jurkat cells at a multiplicity of infection <0.1, resulting in 25,000-50,000 infected cells each presumably with a unique integration site. Cells were then sorted by FACS to isolate green fluorescent protein-labeled (GFP+) cells and fluorescently imaged on glass-bottom dishes in RPMI 1640 with 10% fetal calf serum and 1% penicillin-streptomycin and 10 μM of VM at t=0 h for the population which was pre-treated with VM 1 day before imaging. […] For each trajectory, noise autocorrelation [Φ(t)] and magnitude (CV^2) were calculated using an established noise-processing algorithm (Weinberger at al., 2008, Nature Genetics, 40(4):466-470; Dar at al., 2012, Proc Natl Acad Sci USA 109:17454-17459; Boehm et al., 2013, Cell Cycle 12:452-462).\nTo assess whether identified VMs are specific to the integration site of the drug screen target, a polyclonal LTR d2GFP population was treated with select VM hits and imaged using time-lapse single cell fluorescence microscopy (Dar et al., 2012, Proc Natl Acad Sci USA 109:17454-17459; Boehm et al., 2013, Cell Cycle 12:452-462) (FIG. 6C). […]"}, "[2]": {"test_system": "HIV-1 LTR promoter", "type": "cell-based"}, "[3]": {"test_system": "latent HIV-1 in primary human CD4+ T cells", "type": "cell-based", "description": "(§1) Details on the Siliciano T-Cell model of HIV-1 latency can be found in Yang et al., 2009, J Clin Invest 119:3473-3486. Details on the Planelles T-Cell model of HIV-1 latency can be found in Bosque and Planelles, 2009, Blood 113:58-65.\n(§2) To test if VMs enhance reactivation in a primary cell model of latency 14 VMs were selected from the 85 VMs initially screened on the JLat cell line. […] Two separate primary cell models of latency were screened (Bosque and Planelles, 2009, Blood 113:58-65; Yang et al., 2009, J Clin Invest 119:3473-3486) The Siliciano model of latency is generated using primary human CD4+ T cells which are transduced with Bcl-2 to allow long-term in vitro survival. The Bcl-2^+ cells are activated with -CD3/-CD28 antibody and infected with a GFP expressing virus. Cells remain in culture for over a month to allow transition into resting memory states and then sorted for GFP-cells after which the sorted cells are the latent pool of cells tested for reactivation. […] Reactivation experiments were designed with a positive control (PMA with Ionomycin or -CD3/-CD28 activation) as well as media only or VM treatment measurements."}, "[4]": {"test_system": "latent HIV-1 in JLat 8.6 cells", "type": "cell-based"}, "[5]": {"test_system": "latent HIV-1 in primary cells of two donors", "type": "cell-based", "description": "as §1, §2"}, "[6]": {"test_system": "latent HIV-1 in primary T-cells", "type": "cell-based", "experimental": "FIG. 18A schematically depicts a primary T-cell model of HIV-1 latency 48 h after reactivation with PMA or a subset of noise enhancers (% reactivation percentage is calculated relative to maximal reactivation potential). […] The horizontal line represents the mean calculated Bliss Independence Score (C. I. Bliss, Ann. Appl. Biol. 26:585-615 (1939)), a measure for strict additivity for all of the compounds. FIG. 18B schematically depicts stochastic simulations of noise suppression, which reduces noise without altering the mean expression level but limits reactivation induced by an activator. […] Details are described, e.g., in Example 10."}, "[7]": {"test_system": "JLat cell line 8.6", "experimental": "FIG. 17 schematically depicts reactivation percentage versus drug toxicity for conventional reactivation cocktails (e.g. TNF+Prostratin, SAHA+Prostratin, SAHA+TNF+Prostratin) and 21 cocktails containing noise-enhancer compounds in combination with TNF+Prostratin. Controls: TNF alone, Prostratin alone, and Untreated, as indicated. Measurements were performed in duplicate on JLat cell line 8.6 after 48 h treatment. […] Details are described, e.g., in Example 9.\n(§3) To test whether reactivation could be further optimized, the doses of noise enhancers and activators were varied (FIG. 14)."}, "[8]": {"test_system": "latent HIV-1 in JLat cell lines", "experiment": "Dose response of reactivation in JLat cell lines (FIG. 14)", "type": "cell-based", "settings": "with TNF or Prostratin", "experimental": "FIGS. 14A and 14B schematically depict dose response curves for compounds V14 and V82 with TNF and Prostratin. FIG. 14A schematically depicts V14 dose response curves with four different concentrations of TNF (left) and five different concentrations of Prostratin (right) at 24 and 48 hours. […] Details are described, e.g., in Example 9.\nas §3"}, "[9]": {"test_system": "HIV-1 LTR promoter", "experiment": "Two-reporter system (LTR-d2GFP and LTR-mCherry) noise measurement", "type": "cell-based", "settings": "FIG. 6E", "experimental": "Without being bound by theory, a destabilized reporter is required to observe transcriptional noise with shorter time scales. GFP noise magnitude (quantified by the variance over the mean fluorescence squared, CV^2) and mean fluorescence were measured by high-throughput flow cytometry 24 hours post 10 uM drug exposure. To control for extrinsic variability in gene expression due to cell volume and state a conservative gating on the population forward versus side scatter was applied (See General Methods). A second LTR driving a long-lived mCherry reporter was integrated and screened alongside the destabilized reporter drug target to control for fluctuations in global resources and post-transcriptional noise sources (FIG. 6E).\nTo distinguish between compounds that primarily target transcription versus post-transcriptional processes and global resources (extrinsic noise) a second reporter of the LTR promoter driving a stable mCherry gene was included in the same targeted cell population used in the drug noise screen (FIG. 6E). The stable reporter averages out and is unaffected by fluctuations due to episodic transcription. Theory predicts that the destabilized d2GFP reporter can detect transcriptional bursting noise contributions (γp>>kon,koff, where γp is the fluorescent reporter degradation rate) while the two reporters together will move their noise magnitudes to changes in non-transcriptional noise sources. Filtering out non-transcriptional noise signatures of VM hits increases the probability for synergistic reactivation of latency. Noise from the two reporters was compared using the same processing as the LTR-d2GFP. The LTR-mCherry ΔCV^2 of the 85 selected VMs primarily land along the ΔCV^2 d2GFP axis. […]. Of these 25 compounds 15 were identified as modifiers of cell cycle, ATP, inflammation, post-translational modifications, and translation.\nIn addition to the GFP reporter in the LTR-d2GFP cell line, an LTR driving a long half-life mCherry reporter was present in the cell line. […] To remove compounds that altered CV^2 post transcriptionally, compounds that affected the CV^2 long-lived red reporter while conserving its mean mCherry level were removed. This method continues development of the original and decade-old 2-reporter system for intrinsic versus extrinsic noise measurements in bacteria (Elowitz et al., (2002) Science 297:1183-1186)."}, "[10]": {"settings": "Pharmakon 1600 library, 10 uM, 24 hours, FIG. 10"}, "[11]": {"settings": "known transcriptional activators"}, "[12]": {"settings": "known transcriptional modulators applied to the isoclone target, FIG. 6D"}}, "note": "“Also recorded” adds a separate entry of the source. Counter-ions that a name gives are not always drawn. Like-named read-outs stand apart in the source and are kept apart here.", "data": [{"compound": "CC(=O)O[C@@]12CO[C@@H]1C[C@H](O)[C@@]1(C)C(=O)[C@H](O)C3=C(C)[C@@H](OC(=O)[C@H](O)[C@@H](NC(=O)OC(C)(C)C)c4ccccc4)C[C@@](O)([C@@H](OC(=O)c4ccccc4)[C@H]21)C3(C)C", "note": "[V1, docetaxel]", "values": [{"measurement": "high frequency noise magnitude (HF-CV^2) versus untreated polyclonal population", "setting": "[1]; 10 μM, 24 hour pretreatment, tracked 12 hours, ~500 cells", "value": "increased high frequency noise magnitude; also recorded: increased noise magnitude trends above the untreated population"}, {"measurement": "identified as variability enhancer (VE) in noise screen", "setting": "[2]; [10]", "value": "variability enhancers"}]}, {"compound": "C[C@]12CC[C@@H]3c4ccc(OC(=O)N(CCCl)CCCl)cc4CC[C@H]3[C@@H]1CC[C@@H]2O", "note": "[V3, estramustine]", "values": [{"measurement": "identified as variability enhancer (VE) in noise screen", "setting": "[2]; [10]", "value": "variability enhancers"}, {"measurement": "synergy with activators", "setting": "[3]", "value": "synergized with either PMA, prostratin or bryostatin; also recorded: appear to synergize with all three activators"}, {"measurement": "synergy in reactivation of HIV-1 latency", "setting": "[4]", "value": "synergized"}]}, {"compound": "O=C(O)Cc1ccc(-c2ccccc2)cc1", "note": "[V4, felbinac]", "values": [{"measurement": "identified as variability enhancer (VE) in noise screen", "setting": "[2]; [10]", "value": "variability enhancers"}, {"measurement": "synergy with bryostatin", "setting": "[5]", "value": "synergized with bryostatin"}, {"measurement": "synergy in reactivation of HIV-1 latency", "setting": "[4]", "value": "synergized"}]}, {"compound": "COC(=O)Nc1nc2ccc(C(=O)c3ccccc3)cc2[nH]1", "note": "[V7, mebendazole]", "values": [{"measurement": "synergy with PMA", "setting": "[6]", "value": "reactivating half of the remaining cells that PMA alone did not reactivate"}, {"measurement": "increased activation with PMA", "setting": "[6]; 48 h, relative to maximal reactivation potential", "value": "~20", "unit": "%"}, {"measurement": "identified as variability enhancer (VE) in noise screen", "setting": "[2]; [10]", "value": "variability enhancers"}, {"measurement": "synergy in reactivation of HIV-1 latency", "setting": "[4]", "value": "synergized"}]}, {"compound": "C[C@]12C=CC(=O)N[C@@H]1CC[C@@H]1[C@@H]2CC[C@]2(C)[C@@H](C(=O)Nc3cc(C(F)(F)F)ccc3C(F)(F)F)CC[C@@H]12", "note": "[V10, dutasteride]", "values": [{"measurement": "identified as variability enhancer (VE) in noise screen", "setting": "[2]", "value": "variability enhancers"}, {"measurement": "synergy with activators", "setting": "[3]", "value": "synergized with either PMA, prostratin or bryostatin; also recorded: appear to synergize with all three activators"}, {"measurement": "synergy in reactivation of HIV-1 latency", "setting": "[4]", "value": "synergized"}]}, {"compound": "O=C(O)COCCN1CCN(C(c2ccccc2)c2ccc(Cl)cc2)CC1", "note": "(stereo not shown) [V11, cetirizine hydrochloride]", "values": [{"measurement": "high frequency noise magnitude (HF-CV^2) versus untreated polyclonal population", "setting": "[1]; hydrochloride", "value": "increased high frequency noise magnitude; also recorded: increased noise magnitude trends above the untreated population"}, {"measurement": "viability when combined with TNFα and Prostratin", "setting": "[7]", "value": "without significant reduction in viability"}, {"measurement": "gene expression noise versus compound concentration", "setting": "[2]", "value": "increasing trend in gene expression noise"}, {"measurement": "identified as variability enhancer (VE) in noise screen", "setting": "[2]", "value": "variability enhancers"}, {"measurement": "concentration at peak in HIV-1 reactivation", "setting": "[4]", "value": 25, "unit": "µM"}, {"measurement": "synergy in reactivation of HIV-1 latency", "setting": "[4]", "value": "synergized"}, {"measurement": "reactivation relative to Prostratin alone", "setting": "[4]; hydrochloride", "value": "about twice; also recorded: about three times"}, {"measurement": "reactivation relative to TNFα alone", "setting": "[4]; hydrochloride", "value": "about twice; also recorded: about three times"}, {"measurement": "reactivation relative to TNFα or Prostratin alone (dose response surface)", "setting": "[4]; hydrochloride", "value": "more than three times; also recorded: almost double; also recorded: greater reactivation"}, {"measurement": "reactivation when combined with TNFα and Prostratin", "setting": "[4]; hydrochloride", "value": "further increase reactivation; also recorded: increased activation"}]}, {"compound": "C[C@@H]1CC[C@H]2[C@@H](C)C(=O)O[C@@H]3O[C@@]4(C)CC[C@@H]1[C@]32OO4", "note": "[V14, artemisinin]", "values": [{"measurement": "viability when combined with TNFα and Prostratin", "setting": "[7]", "value": "without significant reduction in viability"}, {"measurement": "identified as variability enhancer (VE) in noise screen", "setting": "[2]; [10]", "value": "variability enhancers"}, {"measurement": "concentration at peak activation", "setting": "[8]; 24 and 48 hours", "value": "about 10 μM"}, {"measurement": "synergy with bryostatin", "setting": "[5]", "value": "synergized with bryostatin"}, {"measurement": "synergy in reactivation of HIV-1 latency", "setting": "[4]", "value": "synergized"}, {"measurement": "reactivation when combined with TNFα and Prostratin", "setting": "[4]; VM + TNFα + Prostratin, 48 hours", "value": "further increase reactivation; also recorded: increased activation"}]}, {"compound": "O=c1[nH]c(=O)n([C@H]2C[C@H](O)[C@@H](CO)O2)cc1I", "note": "[V82, idoxuridine]", "values": [{"measurement": "identified as variability enhancer (VE) in noise screen", "setting": "[2]; [10]", "value": "variability enhancers"}, {"measurement": "concentration at maximal reactivation", "setting": "[8]; 48 hours, two JLat cell lines", "value": 50, "unit": "µM"}, {"measurement": "synergy in reactivation of HIV-1 latency", "setting": "[4]", "value": "synergized"}]}, {"compound": "TNFα", "values": [{"measurement": "d2GFP noise", "setting": "[9]; [11]", "value": "decrease both mCherry and d2GFP noise"}, {"measurement": "mCherry noise", "setting": "[9]; [11]", "value": "decrease both mCherry and d2GFP noise"}, {"measurement": "transcriptional burst frequency (decreasing noise in mCherry)", "setting": "[9]; transcriptional modifiers", "value": "increase transcriptional burst frequency"}, {"measurement": "burst frequency", "setting": "[2]; activator drugs, FIG. 6D", "value": "increase burst frequency"}, {"measurement": "mean expression level", "setting": "[2]; [12]", "value": "increase mean expression level"}, {"measurement": "variability in gene expression (noise magnitude)", "setting": "[2]; [12]", "value": "decrease variability in gene expression; also recorded: decrease noise magnitude"}]}]}
